Assay results taken from patent US20170333509A1, “MAILLARD REACTION PRODUCT-DECOMPOSING AGENT” (ARKRAY, Inc., priority 2016, published 2017).

Key:
[1] = AGEs Cross-Link Breaking Effect Confirmatory Test 1 (benzoic acid from PPD by reverse-phase HPLC); assay type: biochemical; settings: plant extract (hot water, 80° C.) or 10 mmol/L PTB : 10 mmol/L PPD : 0.2 mol/L phosphate buffer pH 7.4 = 5:1:4, 37° C., eight hours, n=3
Description: The test was carried out according to the description in […] al. (Nature, 382, pp 275-278 (1996)). […] A plant extract, 10 mmol/L of PPD, and 0.2 mol/L of phosphate buffer solution (pH 7.4) were mixed together at a ratio of 5:1:4 and then were reacted at 37° C. for eight hours (n=3). After completion of the reaction, hydrochloric acid was added thereto to stop the reaction. […] The amount of benzoic acid contained in the reaction solution was determined by subtracting the amount of benzoic acid contained in the sample, which was measured separately. Since 1 mol of PPD produces 1 mol of benzoic acid, the cross-link breaking rate was calculated by the following formula. Cross-link breaking rate (%)={(A-B)/C}×100 A: The amount of benzoic acid contained in the reaction solution B: The amount of benzoic acid contained in the sample C: The amount of PPD provided for the reaction (the amount of the substrate) As a control, a test was carried out using 10 mmol/L of PTB instead of the plant extract.

[2] = tested on: AGEs modified bovine serum albumin (AGE-BSA) cross-linked to collagen; experiment: AGEs Cross-Link Breaking Effect Confirmatory Test 2 (AGE-BSA cross-linked to collagen-coated microplate, ELISA); assay type: biochemical; settings: cross-link breaking reaction at 37° C. for 18 hours
Description: The test was carried out according to the description in Sara Vasan et al. (Nature, 382, pp 275-278 (1996)).
300 μL/well of SuperBlock T20 (PBS) Blocking Buffer was added to a commercially available 96-well microplate precoated with collagen, which then was reacted at 37° C. for one hour. After the reaction, it was washed with 0.05% polyethylene (20) sorbitan monolaurate (Tween 20)/PBS(−), and then AGEs modified bovine serum albumin (AGE-BSA) was added to each well of the microplate, which then was subjected to a crosslinking reaction at 37° C. for four hours. After the reaction, it was washed with Tween 20/PBS(−). Thereafter, a plant extract was added to each well and thereby it was subjected to a cross-link breaking (cleaving) reaction at 37° C. for 18 hours. After that, it was washed with Tween 20/PBS(−) and a primary antibody (anti-albumin bovine serum rabbit-polyclonal) was added thereto, which then was reacted at room temperature for 30 minutes. […] As a reaction stop solution, 1N HCl was added thereto, and the absorbance at 450 nm (dominant wavelength)/630 nm (complementary wavelength) was measured with a microplate reader. The amount of AGE-BSA that remained was determined from a calibration curve in which the amount of AGE-BSA was varied. Furthermore, the AGE-BSA decomposition rate (Collagen cross-link decomposition rate) was determined using the following formula. […]

SMILES | Cross-Link Breaking Rate (%) (Mean Value ± Standard Deviation) [1] | Collagen Cross-Link Decomposition Rate (%) (AGE-BSA decomposition rate) [2] | Amount of Remaining AGE-BSA ([2]; absorbance 450 nm/630 nm, calibration curve)
O=C(C[n+]1ccsc1)c1ccccc1.[Br-] [PTB, N-phenacylthiazolium bromide] | 20.47 ± 0.29% | – | –
O=C1O[C@H]2[C@@H]3OC(=O)c4cc(O)c(O)c(O)c4-c4c(O)c(O)c5oc(=O)c6c(c(O)c(O)c7oc(=O)c4c5c76)-c4c(cc(O)c(O)c4O)C(=O)OC[C@H]3OC(O)[C@@H]2OC(=O)c2cc(O)c(O)c(O)c2-c2c1cc(O)c(O)c2O (mixture of isomers) [Punicalagin, punicalagin] | – | 65.7% | 343.3 ng
